Assay: Membrane permeation property of the cosurfactant in soft capsules over storage at room temperature (cosurfactant content by gas chromatography)
Assay type: physicochemical
Conditions: after 50 days
Description: The content of the cosurfactant in each soft capsule preparation was analyzed by gas chromatography. The components and their constitutional ratios in the compositions used in this experiment are given in the following Table 1 and the experiment results are given in the following Table 2.

For `CO[C@H]1CO[C@H]2[C@@H]1OC[C@H]2OC` [dimethylisosorbide, 1,4:3,6-dianhydro-2,5-dimethyl-D-glucitol], the “change in content of the cosurfactant in the soft capsule” value was “does not change in its content even after 50 days”.

Reference: patent EP0650721B1 (HANMI PHARM. IND. CO., LTD., priority 1993, dated 1995)
